These results are taken from patent US7115632B1, “Sulfonyl aryl or heteroaryl hydroxamic acid compounds” (priority 1999, dated 2006).

For one data set, the target named is T1, MMP-13 (Homo sapiens, UniProt P45452).
T1 construct: made in house; host or cells: insect cells, baculovirus expression
The experiment in a line: In vitro metalloprotease inhibition, fluorogenic MCA peptide substrate. Type of data set: biochemical. The settings on record: Inhibition Table B.

Another data set deals with MT1-MMP (Homo sapiens, UniProt P50281). The description is as above. The settings on record: Inhibition Table B. Type of data set: biochemical. As for the experimental part:
(§1) Briefly, 4-aminophenylmercuric acetate (APMA) or trypsin-activated MMPs were incubated with various concentrations of the inhibitor compound at room temperature for 5 minutes.
(§2) MCA-ProLeuGlyLeuDpaAlaArgNH2, wherein MCA is methoxycoumarin and Dpa is 3-(2,4-dinitrophenyl)-L-2,3-diaminopropionyl alanine.
(§3) The buffer used for assays contained 100 mM Tris-HCl, 100 mM NaCl, 10 mM CaCl2 and 0.05 percent polyethyleneglycol (23) lauryl ether at a pH value of 7.5.
(§4) The ID50 values were calculated from those values.

In another data set the target is MMP-8 (Homo sapiens, UniProt P22894). The data set is described as above. The format is biochemical. The following applies: Inhibition Table B. The method, then: as §1, §2, §3, §4
Chain of MMP-8 (P22894 101-467, species assumed): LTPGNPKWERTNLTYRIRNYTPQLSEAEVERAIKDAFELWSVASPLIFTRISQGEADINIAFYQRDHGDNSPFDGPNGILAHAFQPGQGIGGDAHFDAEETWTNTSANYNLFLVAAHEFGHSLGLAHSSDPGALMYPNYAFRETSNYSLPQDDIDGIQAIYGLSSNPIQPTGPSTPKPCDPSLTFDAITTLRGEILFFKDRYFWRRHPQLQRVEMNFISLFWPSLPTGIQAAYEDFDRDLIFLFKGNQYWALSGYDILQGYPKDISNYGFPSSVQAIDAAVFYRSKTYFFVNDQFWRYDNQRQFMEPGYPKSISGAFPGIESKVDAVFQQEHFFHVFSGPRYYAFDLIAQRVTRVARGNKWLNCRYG
A further data set concerns the target T2, MMP-9 (Homo sapiens, UniProt P14780).
T2 construct: made in house; host or cells: transfected HT-1080 cells (provided by Dr. Harold Welgus)
Described as above. The following applies: Inhibition Table B. The format is biochemical. The method, then: as §1
MMP-1 expressed in transfected HT-1080 cells was provided by Dr. Harold Welgus of Washington University, St. Louis, Mo. The enzyme was also activated using APMA and was then purified over a hydroxamic acid column. Dr. Welgus also provided transfected HT-1080 cells that expressed MMP-9. Transfected cells that expressed MMP-2 were provided by Dr. Gregory Goldberg, also of Washington University. Further specifics for preparation and use of these enzymes can be found in the scientific literature describing these enzymes. See, for example, Enzyme Nomenclature, Academic Press, San Diego, Calif. (1992) and the citations therein, and Frije et al., J. Biol. Chem., 26(24): 16766–16773 (1994).
as §2, §3, §4

Another data set concerns the target T3, MMP-2 (Homo sapiens, UniProt P08253).
T3 construct: made in house; provided by Dr. Gregory Goldberg, Washington University
T3 sequence (P08253 110-660): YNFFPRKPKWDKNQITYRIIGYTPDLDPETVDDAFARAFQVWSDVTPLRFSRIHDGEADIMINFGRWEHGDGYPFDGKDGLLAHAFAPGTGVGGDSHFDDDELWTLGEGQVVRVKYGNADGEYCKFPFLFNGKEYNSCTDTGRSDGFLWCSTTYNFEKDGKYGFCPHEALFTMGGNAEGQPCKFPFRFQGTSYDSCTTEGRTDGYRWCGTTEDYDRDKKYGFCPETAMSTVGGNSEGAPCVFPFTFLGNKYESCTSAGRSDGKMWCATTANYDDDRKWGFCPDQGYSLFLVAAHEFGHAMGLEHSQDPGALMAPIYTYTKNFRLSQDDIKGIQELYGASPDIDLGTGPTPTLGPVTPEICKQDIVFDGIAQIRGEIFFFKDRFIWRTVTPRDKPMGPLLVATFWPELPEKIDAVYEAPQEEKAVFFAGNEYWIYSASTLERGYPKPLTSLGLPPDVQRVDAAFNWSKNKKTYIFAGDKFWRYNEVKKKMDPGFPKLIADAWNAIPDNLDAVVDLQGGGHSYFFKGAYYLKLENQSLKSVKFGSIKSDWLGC
The description is as above. The format is biochemical. The settings on record: Inhibition Table B.

A further data set has as its target T4, MMP-1 (Homo sapiens, UniProt P03956).
T4 construct: made in house; host or cells: transfected HT-1080 cells (provided by Dr. Harold Welgus, Washington University)
T4 sequence (P03956 100-469): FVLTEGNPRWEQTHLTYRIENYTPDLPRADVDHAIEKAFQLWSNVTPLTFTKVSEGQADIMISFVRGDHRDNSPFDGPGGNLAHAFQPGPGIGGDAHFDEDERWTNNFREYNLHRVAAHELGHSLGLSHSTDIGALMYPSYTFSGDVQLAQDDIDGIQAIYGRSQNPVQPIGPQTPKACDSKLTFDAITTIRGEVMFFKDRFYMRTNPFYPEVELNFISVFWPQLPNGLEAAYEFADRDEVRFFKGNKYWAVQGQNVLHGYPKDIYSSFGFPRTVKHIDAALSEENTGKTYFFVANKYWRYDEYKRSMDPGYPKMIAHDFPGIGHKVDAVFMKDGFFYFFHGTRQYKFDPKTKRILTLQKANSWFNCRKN
Described as above. The settings on record: Inhibition Table B. Type of data set: biochemical.

For the next data set, the target named is MMP-3 (Homo sapiens, UniProt P08254). Described as above. The format is biochemical. The settings on record: Inhibition Table B.
Chain of MMP-3 (P08254 100-477, species assumed): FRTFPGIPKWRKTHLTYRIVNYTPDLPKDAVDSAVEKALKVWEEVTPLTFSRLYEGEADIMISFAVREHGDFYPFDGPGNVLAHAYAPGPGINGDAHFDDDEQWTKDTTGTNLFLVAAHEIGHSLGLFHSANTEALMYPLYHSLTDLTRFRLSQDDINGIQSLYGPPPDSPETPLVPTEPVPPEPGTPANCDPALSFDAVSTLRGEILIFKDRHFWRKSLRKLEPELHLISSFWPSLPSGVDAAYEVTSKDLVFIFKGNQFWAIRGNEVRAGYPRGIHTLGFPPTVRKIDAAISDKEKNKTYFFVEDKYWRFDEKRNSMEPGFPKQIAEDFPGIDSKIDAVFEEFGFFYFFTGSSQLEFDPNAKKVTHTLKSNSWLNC
For data set [1], the system named is solid tumor cancers (colorectal, pancreatic, ovarian, prostate). The settings on record: cited from earlier work.

A word on the pIC50: it is the negative decadic logarithm of the IC50, by convention in mol/L. Low values mean a large IC50, high ones a small IC50.

pIC50: −log10 of the molar value. Counter-ions that a name gives are not always drawn.

T2 sequence (P14780 107-707 limits assumed): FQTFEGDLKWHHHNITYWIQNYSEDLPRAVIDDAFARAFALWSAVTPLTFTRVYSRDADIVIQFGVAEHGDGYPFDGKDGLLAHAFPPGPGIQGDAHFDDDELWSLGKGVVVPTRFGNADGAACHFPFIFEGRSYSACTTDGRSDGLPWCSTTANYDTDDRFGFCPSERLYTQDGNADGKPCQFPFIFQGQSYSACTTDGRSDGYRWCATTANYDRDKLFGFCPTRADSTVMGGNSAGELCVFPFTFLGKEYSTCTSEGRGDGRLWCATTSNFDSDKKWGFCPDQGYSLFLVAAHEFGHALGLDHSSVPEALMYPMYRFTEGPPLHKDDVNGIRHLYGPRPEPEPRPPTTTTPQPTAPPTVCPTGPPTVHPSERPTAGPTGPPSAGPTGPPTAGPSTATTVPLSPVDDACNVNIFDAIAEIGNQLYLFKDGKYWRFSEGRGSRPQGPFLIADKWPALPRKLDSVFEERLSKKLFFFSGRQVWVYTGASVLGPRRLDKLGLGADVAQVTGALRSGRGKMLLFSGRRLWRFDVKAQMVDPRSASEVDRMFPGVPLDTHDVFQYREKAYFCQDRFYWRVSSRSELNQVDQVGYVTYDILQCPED
Text for MMP-13: (§5) The expressed enzyme was purified first over a heparin agarose column and then over a chelating zinc chloride column. The proenzyme was activated by APMA for use in the assay.
Text for MMP-2: as §5

In the case of `COc1ccc(S(=O)(=O)N2CCC(Sc3ccccc3)CC2)c(C(=O)NO)c1OC` [Example 24, N-Hydroxy-2,3-dimethoxy-6-[[4-(phenylthio)-1-piperidinyl]sulfonyl]benzamide], the negative-log IC50 (pIC50) against MMP-13 was 8.52; at MT1-MMP, 7.60; on MMP-8, 7.97; against MMP-9, 8.00; on MMP-2, 9.05; against MMP-1 it was under 5.00. Moreover, at MMP-3, the pIC50 is 6.40.
As to `COc1ccc(S(=O)(=O)N2CCN(c3ccc(C(F)(F)F)cc3)CC2)c(C(=O)NO)c1OC` [Example 26, N-Hydroxy-2,3-dimethoxy-6-[[4-[4-(trifluoromethyl)phenyl]-1-piperazinyl]sulfonyl]benzamide], the negative-log IC50 (pIC50) against MMP-13 is 7.40; on MT1-MMP it was 5.72; on MMP-8, 7.43; at MMP-9, 6.01; at MMP-2, 8.19; against MMP-1 it was under 5.00. For the same compound, the negative-log IC50 (pIC50) against MMP-3 is 5.76.
As for `COc1ccc(S(=O)(=O)N2CCC(Oc3ccc(-c4cccc(C(F)(F)F)c4)cc3)CC2)c(C(=O)NO)c1OC` [Example 27, N-Hydroxyl-2,3-dimethoxy-6-[[4-[[3′-(trifluoromethyl)[1,1′-biphenyl]-4-yl]oxy]-1-piperidinyl]sulfonyl]benzamide], the pIC50 on MMP-13 is 8.52; against MT1-MMP, 6.16; against MMP-8 it was 6.68; against MMP-9, 6.28; against MMP-2 it was 8.48; against MMP-1 it was under 5.00. Further, the pIC50 against MMP-3 is 6.52.
In the case of `O=C(NO)c1c(S(=O)(=O)N2CCC(Oc3ccc(C(F)(F)F)cc3)CC2)ccc2c1OCO2` [Example 36], the negative logarithm of the IC50 (pIC50) on MMP-13 was 7.74; on MT1-MMP, 6.52; against MMP-8, 7.91; on MMP-9 it was 8.10; against MMP-2, 8.52; against MMP-1, under 5.00. Besides, at MMP-3, the pIC50 is 6.22.
Regarding `COc1ccc(N2CCN(S(=O)(=O)c3ccc(OC)c(OC)c3C(=O)NO)CC2)cc1` [Example 41, N-Hydroxy-2,3-dimethoxy-6-[[4-(4-methoxyphenyl)-1-piperazinyl]sulfonyl]benzamide, monohydrochloride], the pIC50 at MMP-13 was 7.00; on MT1-MMP it was 5.40; against MMP-8 it was 6.92; at MMP-9, 6.33; on MMP-2, 8.22; on MMP-1, under 5.00. This compound also gave a negative logarithm of the IC50 (pIC50) at MMP-3 of 5.10.
Regarding `COc1ccc(OC2CCN(S(=O)(=O)c3ccc(OC)c(OC)c3C(=O)NO)CC2)cc1` [Example 45], the negative-log IC50 (pIC50) against MMP-13 is 7.86; against MT1-MMP, 6.52; against MMP-8, 7.94; on MMP-9, 8.52; against MMP-2, 8.74; on MMP-1, under 5.00. The same compound showed a negative-log IC50 (pIC50) at MMP-3 of 6.05.
Take `COc1ccc(S(=O)(=O)N2CCC(Oc3ccc4c(c3)OCO4)CC2)c(C(=O)NO)c1OC` [Example 50, 6-[[4-(1,3-Benzodioxole-5-yloxy)-1-piperinyl]sulfonyl]-N-hydroxy-2,3-dimethoxybenzamide]: the pIC50 against MMP-13 is 7.73; on MT1-MMP, 6.57; at MMP-8, 7.91; on MMP-9, 8.05; against MMP-2, 8.96; on MMP-1, under 5.00. Further, the pIC50 on MMP-3 is 5.89.
`CCCCOc1ccc(OC2CCN(S(=O)(=O)c3ccc(OC)c(OC)c3C(=O)NO)CC2)cc1` [Example 54, 6-[[4-(4-Butoxyphenoxy)-1-piperidinyl]sulfonyl]-N-hydroxy-2,3-dimethoxybenzamide]: the pIC50 against MMP-13 was 8.80; on MT1-MMP it was 6.70; against MMP-8, 7.15; on MMP-9, 8.70; on MMP-2 it was 9.10; against MMP-1, under 5.00. On MMP-3, this compound showed a pIC50 of 7.50.
`CNC(=O)[C@@H](NC(=O)[C@H](CC(C)C)[C@H](O)C(=O)NO)C(C)(C)C` [marimastat, Marimastat]: the “most common drug-related toxicity” value in data set [1] (clinical trials, patients) is “musculoskeletal pain and stiffness”. The “rise of cancer-specific antigens (surrogate markers for biological activity)” value in data set [1] (patients with advanced, rapidly progressive, treatment-refractory solid tumor cancers) is given as “dose-related reduction in the rise of cancer-specific antigens”.
